Test [1] deals with Ipomoea hederacea. Briefly: Pre-emergence soil spray pot test, herbicidal activity (Example 2). The test is classed as in vivo. The following applies: scale 0 to 100; 20 g/ha; soil spray on day of sowing; ten days after spray treatment; greenhouse. Here is the method:
(§1) Ipomoea hederacea was sowed on a plastic pot filled with a soil. Following the sowing, on the day of the sowing, a mixed liquid of flumioxazin, isoxaflutole, and cyprosulfamide was sprayed uniformly so that the amounts of the agents might become those shown in Table 2 in a sprayed water amount of 500 L/ha. The mixed liquid of flumioxazin, isoxaflutole, and cyprosulfamide was prepared by dissolving the respective compounds in prescribed amounts separately in acetone containing 2% (w/v) of Tween 20 (surfactant, produced by Tokyo Chemical Industry Co., Ltd.), diluting the respective solutions with water and then combining them, followed by dilution with water so that the final acetone concentration of the spray liquid might be 10% by volume. After the spray treatment, the pot was carried into a greenhouse. Ten days after the spray treatment, the herbicidal activity to Ipomoea hederacea was evaluated.

In test [2] the test system is Echinochloa crus-galli. The test can be described thus: Pre-emergence soil spray pot test, herbicidal activity (Example 3). The test is classed as in vivo. The following applies: scale 0 to 100; 2 g/ha; soil spray on day of sowing; twenty days after spray treatment; greenhouse. Here is the method:
as §1, with “Echinochloa crus-galli was” for “Ipomoea hederacea was”, “Table 3” for “Table 2”, “greenhouse. Twenty” for “greenhouse. Ten”, “to Echinochloa crus-galli” for “to Ipomoea hederacea”

As to `C#CCN1C(=O)COc2cc(F)c(N3C(=O)C4=C(CCCC4)C3=O)cc21` [Flumioxazin], the “Herbicidal activity Ipomoea hederacea” value in test [1] turned out to be 80. Moreover, in test [2], the “Herbicidal activity Echinochloa crus-galli” value is 10.

The record behind these values is patent US8921268B2, “Herbicidal composition” (Sumitomo Chemical Company, Limited, priority 2012, dated 2014).
